In PubChem BioAssay (NCI):
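Dose response: 5 concentrations. Exposure: 48 h. Format: 96-well plates. Endpoint: linear interpolation; highest concentration if not reached. The concentration for full growth arrest is given as TGI.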

Tests used:
Assay in all cases: inhibition of tumour cell growth, NCI panel, 48 h
786-0 renal = system: 786-0 renal
A498 renal = system: A498 renal
ACHN renal = system: ACHN renal
BT-549 breast = system: BT-549 breast
CAKI-1 renal = system: CAKI-1 renal
CCRF-CEM leukemia = system: CCRF-CEM leukemia
COLO 205 colon = system: COLO 205 colon
DU-145 prostate = system: DU-145 prostate
EKVX NSCLC = system: EKVX NSCLC
HCT-116 colon = system: HCT-116 colon
HCT-15 colon = system: HCT-15 colon
HL-60(TB) leukemia = system: HL-60(TB) leukemia
HS 578T breast = system: HS 578T breast
HT29 colon = system: HT29 colon
IGROV1 ovarian = system: IGROV1 ovarian
K-562 leukemia = system: K-562 leukemia
KM12 colon = system: KM12 colon
LOX IMVI melanoma = system: LOX IMVI melanoma
M14 melanoma = system: M14 melanoma
MALME-3M melanoma = system: MALME-3M melanoma
MCF7 breast = system: MCF7 breast
MDA-MB-231 breast = system: MDA-MB-231 breast
MDA-MB-435 = system: MDA-MB-435
MDA-N = system: MDA-N
MOLT-4 leukemia = system: MOLT-4 leukemia
NCI-H226 lung = system: NCI-H226 lung
NCI-H23 lung = system: NCI-H23 lung
NCI-H460 lung = system: NCI-H460 lung
NCI/ADR-RES ovarian = system: NCI/ADR-RES ovarian
OVCAR-3 ovarian = system: OVCAR-3 ovarian
OVCAR-5 ovarian = system: OVCAR-5 ovarian
OVCAR-8 ovarian = system: OVCAR-8 ovarian
PC-3 prostate = system: PC-3 prostate
RPMI-8226 leukemia = system: RPMI-8226 leukemia
RXF 393 renal = system: RXF 393 renal
SF-268 CNS = system: SF-268 CNS
SF-295 CNS = system: SF-295 CNS
SF-539 CNS = system: SF-539 CNS
SK-MEL-2 melanoma = system: SK-MEL-2 melanoma
SK-MEL-28 melanoma = system: SK-MEL-28 melanoma
SK-MEL-5 melanoma = system: SK-MEL-5 melanoma
SK-OV-3 ovarian = system: SK-OV-3 ovarian
SN12C renal = system: SN12C renal
SNB-19 CNS = system: SNB-19 CNS
SNB-75 CNS = system: SNB-75 CNS
SW-620 colon = system: SW-620 colon
T-47D breast = system: T-47D breast
TK-10 renal = system: TK-10 renal
U251 CNS = system: U251 CNS
UACC-257 melanoma = system: UACC-257 melanoma
UACC-62 melanoma = system: UACC-62 melanoma
UO-31 renal = system: UO-31 renal
A549 NSCLC = system: A549 NSCLC
HCC-2998 colon = system: HCC-2998 colon
HOP-62 NSCLC = system: HOP-62 NSCLC
NCI-H522 lung = system: NCI-H522 lung
OVCAR-4 ovarian = system: OVCAR-4 ovarian
SR leukemia = system: SR leukemia

Measured: TGI

COc1ccc(C2OC(N)=C(C#N)C3=C2CCCC3C)cc1OC (configuration not stated)
not listed: A549 NSCLC | HCC-2998 colon | HOP-62 NSCLC | NCI-H522 lung | OVCAR-4 ovarian | SR leukemia
> 100 µM: all other assays above

CC(=O)O[C@H]1CC[C@@]2(C)C(=CC[C@@H]3[C@@H]2CC[C@]2(C)NC(=O)/C(=C\c4ccccc4)C[C@@H]32)C1
28.9 µM: OVCAR-3 ovarian
30.5 µM: M14 melanoma
38.5 µM: A549 NSCLC | COLO 205 colon
37.6 µM: U251 CNS
62 µM: HCC-2998 colon
34.8 µM: EKVX NSCLC
43.8 µM: OVCAR-4 ovarian
31.1 µM: SF-539 CNS
46.9 µM: HCT-116 colon
35 µM: OVCAR-5 ovarian
53 µM: MDA-MB-231 breast
80.5 µM: TK-10 renal
40.4 µM: HCT-15 colon
33.4 µM: LOX IMVI melanoma
48 µM: DU-145 prostate
76.1 µM: ACHN renal
23.2 µM: SK-MEL-5 melanoma
> 100 µM: CAKI-1 renal | K-562 leukemia | MOLT-4 leukemia | SR leukemia
42 µM: IGROV1 ovarian | SN12C renal
43.9 µM: UACC-257 melanoma
69.2 µM: T-47D breast
37.5 µM: SF-295 CNS
27.8 µM: RXF 393 renal
40.8 µM: NCI-H226 lung
59.8 µM: MCF7 breast
55.4 µM: CCRF-CEM leukemia
64.2 µM: RPMI-8226 leukemia
42.7 µM: KM12 colon
39.8 µM: SK-MEL-2 melanoma
31.8 µM: SNB-19 CNS
31.2 µM: HT29 colon
42.6 µM: MDA-N
33.2 µM: MDA-MB-435
34.2 µM: BT-549 breast
27.6 µM: A498 renal
32.3 µM: SK-MEL-28 melanoma
45 µM: OVCAR-8 ovarian
95.3 µM: NCI-H460 lung
41.4 µM: 786-0 renal
41.9 µM: SW-620 colon
37.9 µM: SF-268 CNS
33.1 µM: NCI-H23 lung | UACC-62 melanoma | UO-31 renal
44.5 µM: PC-3 prostate
31.7 µM: NCI-H522 lung
36.2 µM: MALME-3M melanoma
63.1 µM: NCI/ADR-RES ovarian
44.3 µM: SK-OV-3 ovarian | SNB-75 CNS
30.1 µM: HOP-62 NSCLC

CCCCSC1=N/C(=C\c2ccco2)C(Cl)=N1
not listed: K-562 leukemia | LOX IMVI melanoma | SF-539 CNS | SR leukemia
> 100 µM: all other assays above
